Assay results published in patent publication US20250011881A1, “MYC-HSF1 DUAL AMPLIFICATION AS A BIOMARKER FOR CANCER TREATMENT” (The Trustees of Indiana University, priority 2023, published 2025).
Structures can show the parent of a compound that is named as a salt. Where two headings read alike, the source gives them in different places.

System: ovarian cancer cells with (OVCAR8, OVCAR4) or without (OVSAHO, CAOV3) MYC-HSF1 amplification
Experiment: Epigenetic inhibitor drug screen, cell viability (Cell Titer Blue)
Assay type: cell-based
[1] = 10 uM, 48 hrs, average relative cell viability (vs 1% DMSO) of non-amplified cells (OVSAHO, CAOV3) minus that of MYC-HSF1 amplified cells (OVCAR8, OVCAR4), positive = greater response in amplified cells
[2] = 10 uM, 48 hrs, average relative cell viability (vs 1% DMSO) of non-amplified cells (OVSAHO, CAOV3) minus that of MYC-HSF1 amplified cells (OVCAR8, OVCAR4), positive = greater response in amplified cells, 10 µM

SMILES: C[C@@H]1CC[C@@]2(OC1)O[C@H]1C[C@H]3[C@@H]4CC=C5C[C@@H](O)CC[C@]5(C)[C@H]4CC[C@]3(C)[C@H]1[C@@H]2C [Diosgenin]
- Non Amp - AMP (POC) 10 uM [1]: 5.646 POC

SMILES: CCCC(CCC)C(=O)O [Divalproex Sodium]
- Non Amp - AMP (POC) 10 uM [2]: −6.451 POC

SMILES: COc1cc2c(cc1OC)C(=O)C(CC1CCN(Cc3ccccc3)CC1)C2 (stereo not drawn) [Donepezil HCl]
- Non Amp - AMP (POC) 10 uM [1]: −4.516 POC

SMILES: Cl.Cl.c1cc(-c2cnn3cc(-c4ccc(OCCN5CCCCC5)cc4)cnc23)ccn1 [Dorsomorphin 2HCl]
- Non Amp - AMP (POC) 10 uM: 15.62 POC

SMILES: c1cc(-c2cnn3cc(-c4ccc(OCCN5CCCCC5)cc4)cnc23)ccn1 [Dorsomorphin (Compourd C), Dorsomorphin]
- Non Amp - AMP (POC) 10 uM [1]: 7.913 POC

SMILES: COc1cccc2c1C(=O)c1c(O)c3c(c(O)c1C2=O)C[C@@](O)(C(=O)CO)C[C@@H]3O[C@H]1C[C@H](N)[C@H](O)[C@H](C)O1 [Doxorubicin (Adriamycin) HCl, Doxorubicin]
- Non Amp - AMP (POC) 10 uM [2]: 3.26 POC

SMILES: COc1cccc2c1C(=O)c1c(O)c3c(c(O)c1C2=O)C[C@@](O)(C(=O)CO)C[C@@H]3O[C@H]1C[C@H](N)[C@H](O)[C@H](C)O1 [Doxorubicin]
- Non Amp - AMP (POC) 10 uM [2]: 4.864 POC

SMILES: Cc1cc(Cl)ccc1OCCCC(=O)NO [Droxinostat]
- Non Amp - AMP (POC) 10 uM [1]: −21.53 POC

SMILES: CS(=O)(=O)c1ccc(-c2cnc(NCc3ccco3)n3cnnc23)cc1 [EED226]
- Non Amp - AMP (POC) 10 uM [1]: 32.64 POC

SMILES: CCC(CC)n1ccc2c(C(=O)NCc3c(C)cc(C)[nH]c3=O)cc(C#N)cc21 [EI1]
- Non Amp - AMP (POC) 10 uM [1]: 15.27 POC

SMILES: Cc1cc(Nc2cc(N3CCN(C)CC3)nc(/C=C/c3ccccc3)n2)n[nH]1.O=C(O)C(O)C(O)C(=O)O [ENMD-2076 L-(+)-Tartaric acid]
- Non Amp - AMP (POC) 10 uM [1]: −24.46 POC

SMILES: Cc1cc(Nc2cc(N3CCN(C)CC3)nc(/C=C/c3ccccc3)n2)n[nH]1 [ENMD-2076]
- Non Amp - AMP (POC) 10 uM [1]: −22.8 POC

SMILES: CC(C)N(CCCNC(=O)Nc1ccc(C(C)(C)C)cc1)C[C@H]1O[C@@H](n2ccc3c(N)ncnc32)[C@H](O)[C@@H]1O.O=CO [EPZ004777 (formate)]
- Non Amp - AMP (POC) 10 uM [1]: 10.91 POC

SMILES: CC(C)N(CCCNC(=O)Nc1ccc(C(C)(C)C)cc1)C[C@H]1O[C@@H](n2ccc3c(N)ncnc32)[C@H](O)[C@@H]1O [EPZ004777]
- Non Amp - AMP (POC) 10 uM [1]: 6.632 POC

SMILES: Cc1cc(C)c(CNC(=O)c2cc(-c3ccc(CN4CCOCC4)cc3)cc3c2cnn3C2CCCC2)c(=O)[nH]1 [EPZ005687]
- Non Amp - AMP (POC) 10 uM [1]: 15.13 POC

SMILES: CCN(c1cc(-c2ccc(CN3CCOCC3)cc2)cc(C(=O)NCc2c(C)cc(C)[nH]c2=O)c1C)C1CCOCC1 [EPZ6438]
- Non Amp - AMP (POC) 10 uM [2]: 8.683 POC
- Non Amp - AMP (POC) 10 uM (10 uM, 48 hrs, average relative cell viability (vs 1% DMSO) of non-amplified cells (OVSAHO, CAOV3) minus that of MYC-HSF1 amplified cells (OVCAR8, OVCAR4), positive = greater response in amplified cells, listed as EPZ-6438, 10 µM): 3.862 POC

SMILES: CC(C)(CCCCCC(O)CCCCCC(C)(C)C(=O)O)C(=O)O [ETC-1002]
- Non Amp - AMP (POC) 10 uM [1]: −2.506 POC

SMILES: NC(=O)C1CCCc2c1[nH]c1ccc(Cl)cc21 (stereo not drawn) [EX 527 (SEN0014196)]
- Non Amp - AMP (POC) 10 uM [1]: −0.5892 POC

SMILES: O=c1oc2c(O)c(O)cc3c(=O)oc4c(O)c(O)cc1c4c23 [Ellagic acid]
- Non Amp - AMP (POC) 10 uM [1]: 13.8 POC

SMILES: CCN(CC)C(=O)/C(C#N)=C/c1cc(O)c(O)c([N+](=O)[O-])c1 [Entacapone]
- Non Amp - AMP (POC) 10 uM [1]: −6.777 POC

SMILES: Cn1cc(C2=C(c3cn(C4CCN(Cc5ccccn5)CC4)c4ccccc34)C(=O)NC2=O)c2ccccc21 [Enzastaurin (LY317615), Enzastaurin]
- Non Amp - AMP (POC) 10 uM [1]: 13.08 POC

SMILES: O=C(O)CNC(=O)c1nc(Cl)c2ccccc2c1O [FG2216]
- Non Amp - AMP (POC) 10 uM [1]: −1.816 POC

SMILES: Cc1nc(C(=O)NCC(=O)O)c(O)c2ccc(Oc3ccccc3)cc12 [FG-4592 (ASP1517)]
- Non Amp - AMP (POC) 10 uM [1]: −0.1816 POC

SMILES: O=S(=O)(c1cccc2cnccc12)N1CCCNCC1 [Fasudil (HA-1077) HCl, Fasudil]
- Non Amp - AMP (POC) 10 uM [1]: 15.8 POC

SMILES: O=c1c(O)c(-c2ccc(O)c(O)c2)oc2cc(O)ccc12 [Fisetin]
- Non Amp - AMP (POC) 10 uM [1]: 10.02 POC

SMILES: O=C(O)c1ccccc1Nc1cccc(C(F)(F)F)c1 [Flufenamic acid]
- Non Amp - AMP (POC) 10 uM [1]: −4.318 POC
